In brackets after ≈: the same amount, converted by molar mass. One block for each compound: values may come before it.
Legend:
[1] = test system: LS180; experiment: Cytotoxicity against human LS180 cells assessed as reduction in cell viability after 24 hrs by MTT assay; format: cell-based; settings: LS180, 24 h
[2] = molecular target: T1, Nuclear receptor subfamily 1 group I member 2 (Homo sapiens, UniProt O75469); experiment: Activation of PXR in human LS180 cells assessed as P-gp induction by measuring intracellular accumulation of rhodamine 123 per ug of total protein at 5 uM preincubated for 48 hrs followed by rhodamine 123 addition after 40 mins and measured after 90 mins by fluorescence assay relative to control; format: cell-based; settings: 1.5 h
T1 sequence (O75469 whole entry): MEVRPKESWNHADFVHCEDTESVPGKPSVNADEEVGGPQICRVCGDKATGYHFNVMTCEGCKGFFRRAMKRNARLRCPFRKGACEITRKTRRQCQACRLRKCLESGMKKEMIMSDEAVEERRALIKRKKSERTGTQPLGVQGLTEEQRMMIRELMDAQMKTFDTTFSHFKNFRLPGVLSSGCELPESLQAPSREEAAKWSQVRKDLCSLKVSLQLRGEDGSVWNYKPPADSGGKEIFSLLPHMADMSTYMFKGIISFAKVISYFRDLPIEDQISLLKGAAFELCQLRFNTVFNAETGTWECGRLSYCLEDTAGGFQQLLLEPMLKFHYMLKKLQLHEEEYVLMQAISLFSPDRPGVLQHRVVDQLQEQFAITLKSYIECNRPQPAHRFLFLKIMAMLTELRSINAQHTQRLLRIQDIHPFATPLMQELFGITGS

[3] = Cytotoxicity against human LS180 cells assessed as cell viability at 30 uM after 24 hrs by MTT assay relative to control; format: cell-based; settings: read-out: Activity
[4] = Cmax in BALB/c mouse plasma at 10 mg/kg, po up to 24 hrs by LC-MS/MS analysis; format: ADME, organism-based; set-up: dose 10 mg/kg, route oral
[5] = molecular target: CYP2C9 (Homo sapiens, UniProt P11712); experiment: Inhibition of human recombinant CYP2C9 at 10 uM by fluorescence analysis relative to control; format: ADME
Sequence of CYP2C9 (P11712 whole entry): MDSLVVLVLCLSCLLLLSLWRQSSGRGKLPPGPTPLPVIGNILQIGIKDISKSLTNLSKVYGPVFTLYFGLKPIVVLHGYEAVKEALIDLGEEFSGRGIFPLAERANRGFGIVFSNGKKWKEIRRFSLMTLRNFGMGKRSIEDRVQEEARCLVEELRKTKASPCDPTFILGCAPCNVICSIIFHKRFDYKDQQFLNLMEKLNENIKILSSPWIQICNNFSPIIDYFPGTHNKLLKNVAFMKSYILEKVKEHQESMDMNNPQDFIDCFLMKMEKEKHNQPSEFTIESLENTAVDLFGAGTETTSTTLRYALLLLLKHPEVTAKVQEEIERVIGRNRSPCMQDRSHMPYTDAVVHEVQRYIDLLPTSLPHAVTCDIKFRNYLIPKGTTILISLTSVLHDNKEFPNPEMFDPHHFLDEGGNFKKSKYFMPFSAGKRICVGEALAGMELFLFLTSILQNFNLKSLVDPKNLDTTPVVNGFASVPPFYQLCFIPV

[6] = molecular target: T2, P-gp (expression induced through PXR) (Homo sapiens, UniProt O75469); experiment: Activation of PXR in human LS180 cells assessed as induction of P-gp expression at 5 uM by Western blot method relative to control; format: cell-based; settings: read-out: FC
T2 sequence (O75469 whole entry): T1 sequence (O75469 whole entry)

[7] = Tmax in BALB/c mouse plasma at 10 mg/kg, po up to 24 hrs by LC-MS/MS analysis; format: ADME, organism-based
[8] = Thermodynamic aqueous solubility of the compound in water after overnight incubation; format: physicochemical; settings: read-out: Therm_solubility
[9] = AUC (0 to t) in BALB/c mouse plasma at 1 mg/kg, iv up to 24 hrs by LC-MS/MS analysis; format: ADME, organism-based; set-up: dose 1 mg/kg, time < 24 hr, route intravenous
[10] = molecular target: CYP3A4 (Homo sapiens, UniProt P08684); experiment: Inhibition of human recombinant CYP3A4 at 10 uM by fluorescence analysis relative to control; format: ADME
Sequence of CYP3A4 (P08684 whole entry): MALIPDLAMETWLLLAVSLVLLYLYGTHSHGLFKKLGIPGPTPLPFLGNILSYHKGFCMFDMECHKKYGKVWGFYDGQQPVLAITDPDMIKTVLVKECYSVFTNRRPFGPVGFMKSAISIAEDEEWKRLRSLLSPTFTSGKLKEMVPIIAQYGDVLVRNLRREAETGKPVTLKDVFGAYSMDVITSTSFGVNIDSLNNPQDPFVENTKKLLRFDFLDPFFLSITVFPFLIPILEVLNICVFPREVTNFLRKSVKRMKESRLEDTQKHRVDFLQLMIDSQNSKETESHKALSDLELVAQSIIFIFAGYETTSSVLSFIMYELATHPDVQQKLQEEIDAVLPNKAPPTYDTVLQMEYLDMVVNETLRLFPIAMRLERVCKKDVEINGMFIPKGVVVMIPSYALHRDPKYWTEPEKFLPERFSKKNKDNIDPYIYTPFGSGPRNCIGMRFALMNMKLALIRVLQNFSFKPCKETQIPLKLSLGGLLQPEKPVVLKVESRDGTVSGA

[11] = Thermodynamic aqueous solubility of the compound in phosphate buffered saline at pH 7.4 after overnight incubation; format: physicochemical; settings: read-out: Therm_solubility
[12] = molecular target: T1, Nuclear receptor subfamily 1 group I member 2; experiment: Activation of PXR in human LS180 cells assessed as P-gp induction by measuring intracellular accumulation of rhodamine 123 preincubated for 48 hrs followed by rhodamine 123 addition after 40 mins and measured after 90 mins by fluorescence assay; format: cell-based
[13] = Terminal half life in BALB/c mouse plasma at 1 mg/kg, iv by LC-MS/MS analysis; format: ADME, organism-based; settings: read-out: beta t1/2 (converted)
[14] = AUC (0 to infinity) in BALB/c mouse plasma at 1 mg/kg, iv up to 24 hrs by LC-MS/MS analysis; format: ADME, organism-based; set-up: dose 1 mg/kg, route intravenous, time infinity
[15] = molecular target: CYP2D6 (Homo sapiens, UniProt P10635); experiment: Inhibition of human recombinant CYP2D6 at 10 uM by fluorescence analysis relative to control; format: ADME
Sequence of CYP2D6 (P10635 whole entry): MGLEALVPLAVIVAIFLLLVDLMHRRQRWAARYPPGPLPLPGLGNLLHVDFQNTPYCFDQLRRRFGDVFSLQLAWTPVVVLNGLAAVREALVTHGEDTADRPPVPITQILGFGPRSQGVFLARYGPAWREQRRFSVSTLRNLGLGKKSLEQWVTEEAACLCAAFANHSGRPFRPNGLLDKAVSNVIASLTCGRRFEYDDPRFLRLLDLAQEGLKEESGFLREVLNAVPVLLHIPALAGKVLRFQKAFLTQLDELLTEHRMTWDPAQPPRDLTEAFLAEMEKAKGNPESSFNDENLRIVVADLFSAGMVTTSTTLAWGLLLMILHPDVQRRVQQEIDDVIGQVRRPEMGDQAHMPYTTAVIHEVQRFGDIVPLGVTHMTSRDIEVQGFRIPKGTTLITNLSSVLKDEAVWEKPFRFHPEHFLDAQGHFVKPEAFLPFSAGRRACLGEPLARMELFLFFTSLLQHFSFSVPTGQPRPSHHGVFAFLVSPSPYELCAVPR

[16] = Volume of distribution at steady state in BALB/c mouse at 1 mg/kg, iv up to 24 hrs by LC-MS/MS analysis; format: ADME, organism-based; settings: in vivo, read-out: Vdss
[17] = molecular target: CYP2C19 (Homo sapiens, UniProt P33261); experiment: Inhibition of human recombinant CYP2C19 at 10 uM by fluorescence analysis relative to control; format: ADME
Sequence of CYP2C19 (P33261 whole entry): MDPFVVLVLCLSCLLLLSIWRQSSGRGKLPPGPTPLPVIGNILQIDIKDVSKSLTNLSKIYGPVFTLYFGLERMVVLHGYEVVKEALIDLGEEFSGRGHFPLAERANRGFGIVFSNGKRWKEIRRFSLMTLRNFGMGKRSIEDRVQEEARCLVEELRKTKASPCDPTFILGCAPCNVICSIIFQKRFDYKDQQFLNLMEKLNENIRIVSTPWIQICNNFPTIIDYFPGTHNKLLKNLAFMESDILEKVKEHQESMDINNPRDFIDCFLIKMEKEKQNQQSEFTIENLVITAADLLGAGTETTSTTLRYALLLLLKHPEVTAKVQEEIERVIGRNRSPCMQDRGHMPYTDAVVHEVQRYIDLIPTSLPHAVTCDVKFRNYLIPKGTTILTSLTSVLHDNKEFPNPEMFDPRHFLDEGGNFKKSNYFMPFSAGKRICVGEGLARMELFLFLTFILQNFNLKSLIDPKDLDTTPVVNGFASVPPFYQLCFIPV

[18] = Thermodynamic aqueous solubility of the compound in simulated intestinal fluid at pH 6.8 after overnight incubation; format: physicochemical; settings: read-out: Therm_solubility
[19] = AUC (0 to t) in BALB/c mouse plasma at 10 mg/kg, po up to 24 hrs by LC-MS/MS analysis; format: ADME, organism-based; set-up: dose 10 mg/kg, time < 24 hr, route oral
[20] = Volume of distribution in BALB/c mouse at 1 mg/kg, iv up to 24 hrs by LC-MS/MS analysis; format: ADME, organism-based; settings: in vivo
[21] = Terminal half life in BALB/c mouse plasma at 10 mg/kg, po by LC-MS/MS analysis; format: ADME, organism-based; settings: read-out: beta t1/2 (converted)
[22] = Cmax in BALB/c mouse plasma at 1 mg/kg, iv up to 24 hrs by LC-MS/MS analysis; format: ADME, organism-based; set-up: dose 1 mg/kg, route intravenous
[23] = AUC (0 to infinity) in BALB/c mouse plasma at 10 mg/kg, po up to 24 hrs by LC-MS/MS analysis; format: ADME, organism-based; set-up: dose 10 mg/kg, time infinity, route oral
[24] = Thermodynamic aqueous solubility of the compound in simulated gastric fluid at pH 1.2 after overnight incubation; format: physicochemical; settings: read-out: Therm_solubility
[25] = test system: Mus musculus; experiment: Tlast in BALB/c mouse at 1 mg/kg, iv up to 24 hrs by LC-MS/MS analysis; format: ADME, organism-based; settings: in vivo
[26] = Initial plasma concentration in BALB/c mouse at 1 mg/kg, iv up to 24 hrs by LC-MS/MS analysis; format: ADME, organism-based
[27] = Efflux ratio of permeability in human Caco2 cells after 90 mins by LC-MS/MS analysis; format: ADME, cell-based; settings: Caco-2
[28] = Oral bioavailability in BALB/c mouse plasma at 10 mg/kg up to 24 hrs by LC-MS/MS analysis; format: ADME, organism-based
[29] = Clearance in BALB/c mouse plasma at 1 mg/kg, iv up to 24 hrs by LC-MS/MS analysis; format: ADME, organism-based

Structure (SMILES): CCOP(=O)(/C=C/c1cc(F)cc(F)c1)OCC
IC50 [1]: > 30 µM
Activity [2]: 91.31%
viability at 24 h, 30 µM [3]: 100%

Structure (SMILES): CCOP(=O)(OCC)C(=Cc1ccccc1[N+](=O)[O-])P(=O)(OCC)OCC
IC50 [1]: > 30 µM
Activity [2]: 65.69%
viability at 24 h, 30 µM [3]: 100%

Structure (SMILES): CCOP(=O)(C#Cc1ccccc1)OCC
IC50 [1]: > 30 µM
Activity [2]: 77.64%
viability at 24 h, 30 µM [3]: 100%

Structure (SMILES): CCOP(=O)(C#Cc1cccc(C(F)(F)F)c1)OCC
IC50 [1]: > 30 µM
Activity [2]: 75.16%
viability at 24 h, 30 µM [3]: 100%

Structure (SMILES): CCOP(=O)(OCC)C(=Cc1ccc([N+](=O)[O-])o1)P(=O)(OCC)OCC
IC50 [1]: > 30 µM
Activity [2]: 88.3%
viability at 24 h, 30 µM [3]: 92%

Structure (SMILES): CCOP(=O)(/C=C/c1ccc(F)c(Br)c1)OCC
IC50 [1]: > 30 µM
Activity [2]: 97.7%
viability at 24 h, 30 µM [3]: 100%

Structure (SMILES): CCOP(=O)(OCC)C(Nc1ccccc1)c1ccc(Cl)cc1 (configuration not stated)
IC50 [1]: > 30 µM
Activity [2]: 90.85%
viability at 24 h, 30 µM [3]: 100%

Structure (SMILES): CCOP(=O)(OCC)C(=Cc1ccccc1)P(=O)(OCC)OCC
Cmax [4]: 870 ng/mL
inhibition at 10 µM [5]: 0%
fold induction at 5 µM [6]: 7.2
Tmax [7]: 30 min
solubility thermodynamic [8]: > 1500 µg/mL
AUC(0-t) at 24 h [9]: 543 ng·h/mL
inhibition at 10 µM [10]: 19%
solubility thermodynamic [11]: > 1500 µg/mL
IC50 [1]: > 30 µM
EC50 [12]: 0.271 µM
half-life [13]: 41.4 min
AUC(0-inf) [14]: 549 ng·h/mL
inhibition at 10 µM [15]: 20%
Vd [16]: 1.1 L/kg
Activity [2]: 58.09%
inhibition at 10 µM [17]: 0%
solubility thermodynamic [18]: 40 µg/mL (≈ 0.106 mM)
AUC(0-t) at 24 h [19]: 1970 ng·h/mL
Vd [20]: 1.81 L/kg
half-life [21]: 209 min
Cmax [22]: 811 ng/mL
AUC(0-inf) [23]: 2070 ng·h/mL
solubility thermodynamic [24]: > 1500 µg/mL
Tlast [25]: 4 h
C0 at 24 h [26]: 1150 ng/mL
efflux ratio at 1.5 h [27]: 0.9
bioavailability [28]: 37.6%
viability at 24 h, 30 µM [3]: 100%
clearance [29]: 30.4 mL/min/kg

Second part, led by results:

Activity [2]: 66.93%
Structure (SMILES): CC(C)OP(=O)(OC(C)C)C(=Cc1cc(C(C)(C)C)c(O)c(C(C)(C)C)c1)P(=O)(OC(C)C)OC(C)C
IC50 [1]: > 30 µM
viability at 24 h, 30 µM [3]: 100%

Activity [2]: 70%
Structure (SMILES): COc1cc(C=C(P(=O)(OC(C)C)OC(C)C)P(=O)(OC(C)C)OC(C)C)ccc1F
IC50 [1]: > 30 µM
viability at 24 h, 30 µM [3]: 86%

Activity [2]: 65.32%
Structure (SMILES): CC(C)OP(=O)(OC(C)C)C(=Cc1ccc(N(C)C)cc1)P(=O)(OC(C)C)OC(C)C
IC50 [1]: > 30 µM
viability at 24 h, 30 µM [3]: 100%

Activity [2]: 70.48%
Structure (SMILES): CC(C)OP(=O)(OC(C)C)C(=Cc1cccc2ncccc12)P(=O)(OC(C)C)OC(C)C
IC50 [1]: > 30 µM
viability at 24 h, 30 µM [3]: 100%

Activity [2]: 67.84%
Structure (SMILES): CC(C)OP(=O)(OC(C)C)C(=Cc1ccc([N+](=O)[O-])o1)P(=O)(OC(C)C)OC(C)C
viability at 24 h, 30 µM [3]: 41%

Activity [2]: 83.27%
Structure (SMILES): CC(C)OP(=O)(OC(C)C)C(=Cc1ccc2c(c1)OCO2)P(=O)(OC(C)C)OC(C)C
IC50 [1]: > 30 µM
viability at 24 h, 30 µM [3]: 100%

— ChEMBL document CHEMBL3997764 (Medchemcomm, 2016)
